The source of these data is patent US20250368633A1, “AZEPINE FUSED RING COMPOUND AS RIPK1 INHIBITOR AND USE THEREOF” (ARTIVILA BIOPHARMA, priority 2022, published 2025).

SMILES strings stand for the structures.

By EC50 is commonly meant the midpoint of the concentration-response curve.

The test system of this assay is U937 cells. The assay is described as follows: EC50 of necroptosis inhibition in U937 cells (TSZ-induced, CellTiter-Glo). It counts as cell-based. The following applies: Homo sapiens, U-937; TSZ (hTNF-α, SM-164, Z-VAD-FMK) 20 hours; 10 concentration points; read-out: EC50 intervals of necroptosis inhibition in U937 cells. An outline of the steps: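 Luminescent ATP readout (CellTiter-Glo) after 20 h gave viability of TSZ-challenged U937 cells; compounds were added 15 min ahead of TNF-α/SM-164/Z-VAD-FMK. EC50 derived by variable-slope nonlinear regression of inhibition relative to no-TSZ and TSZ-alone controls.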
Turning to `COC(=O)C1(C#Cc2ccc3c(c2)N(C)C(=O)[C@@H](NC(=O)C(=O)NCCc2ccccc2)CO3)CC1` [Example 96, methyl (S)-1-((5-methyl-4-oxo-3-(2-oxo-2-(phenethylamino)acetamido)-2,3,4,5-tetrahydrobenzo[b][1,4]oxazepin-7-yl)ethynyl)cyclopropane-1-carboxylate], the EC50 is under 100 nM.
The figure for `CN1C(=O)[C@@H](NC(=O)C(=O)NCCc2cccs2)COc2ccccc21` [Example 97, (S)—N^1-(5-methyl-4-oxo-2,3,4,5-tetrahydrobenzo[b][1,4]oxazepin-3-yl)-N^2-(2-(thiophen-2-yl)ethyl)oxalamide] is 100 to 500 nM; for `CN1C(=O)[C@@H](NC(=O)C(=O)NCCc2ccsc2)COc2ccccc21` [Example 98, (S)—N-(5-methyl-4-oxo-2,3,4,5-tetrahydrobenzo[b][1,4]oxazepin-3-yl)-N^2-(2-(thiophen-3-yl)ethyl)oxalamide] it is 100 to 500 nM.
